US9913838B2, “Methods of treating cancer using compositions comprising perillyl alcohol derivative” (NEONC TECHNOLOGIES INC., priority 2010, dated 2018)
pIC50: −log10 of the molar value. Where two headings read alike, the source gives them in different places.

How the values were obtained:
[1] = system: subcutaneous U-87 gliomas; assay: Nude mouse subcutaneous glioma model, local application; format: in vivo, nude mice; conditions: local application via Q-tip daily over 8 weeks; ranking in words
Protocol: Inhibition of tumor growth by butyryl-POH was studied in a nude mouse subcutaneous glioma model. Mice were injected with U-87 glioma cells (500,000 cells/injection) and allowed to form a palpable nodule over two weeks. Once palpable nodule was formed, the mice were treated with local application of various compounds as indicated in FIGS. 9A and 9B via a Q-tip (1 cc/application/day) over a period of 8 weeks.

231-MGMT-1 = assay: Colony formation assay, MGMT-transfected 231-MGMT-1; format: cell-based, human; conditions: pre-treated with O6-BG for 60 minutes; 231-MGMT-1
Protocol: (§1) Depending on the cell line (and plating efficiency), 200-350 cells were seeded into each well of a 6-well plate. […] Thereafter, the drugs were removed, fresh growth medium was added, and the cells were kept in culture undisturbed for 12-16 days, during which time the surviving cells spawned colonies of descendants. Colonies (defined as groups of >50 cells) were visualized by staining for 4 hours with 1% methylene blue (in methanol), and then were counted.
(§2) In the case of O6-BG treatment, cells were pretreated with 10 μM O6-BG for one hour before addition of TMZ or TMZ-POH. After 24 hours, another 10 μM O6-BG was added to the medium. Another 24 hours later, drug-laced medium was removed, and fresh medium without drugs was added. Thereafter, cells remained undisturbed until staining with methylene blue.
(§3) MDA-MB-231 cells were co-transfected in 6-well plates with the use of Lipofectamine 2000 (Invitrogen, Carlsbad, Calif.) according to manufacturer's instructions. 2 μg pSV2MGMT (containing the human MGMT cDNA) was combined with 0.2 μg pSV2neo (containing the neomycin gene for selection of cells in G418). Both plasmids were provided by Bernd Kaina (Mainz, Germany). Individual clones of transfected cells were selected in medium containing 750 μg/mL G418 and propagated in 250 μg/mL G418. G418 was obtained as G418 disulfate salt from Sigma-Aldrich and dissolved in PBS at 75 mg/mL. Selection medium was removed from cells several days before experimental drug treatment.
(§4) To investigate the latter, we stably transfected MGMT-negative MDA-MB-231 cells with MGMT cDNA and isolated individual clones. […] Both clones were treated with increasing concentrations of TMZ-POH and TMZ and analyzed by CFA.

MDA-MB-231 = assay: cells
Protocol: as §1, §2
(§5) The cytotoxic potency of TMZ-POH, was analyzed by colony formation assay (CFA) in a variety of human breast cancer cell lines and compared to the cytotoxicity of TMZ. We used estrogen receptor positive cells MCF7 and T47D, the triple-negative lines MDA-MB-231, MDA-MB-468, and HCC-1937, and a brain-seeking variant of the 231 cell line, MDA-MB-231-br.
Thus, we tested whether simply mixing the two compounds TMZ and POH could mimic the effects of the TMZ-POH conjugate. MDA-MB-231 cells were treated with the individual compounds (TMZ-POH, TMZ or POH) alone, or with an equimolar mix of TMZ plus POH, and cell survival was analyzed by CFA.

231-MGMT-2 = assay: Colony formation assay, MGMT-transfected 231-MGMT-2; format: cell-based, human; conditions: pre-treated with O6-BG for 60 minutes; 231-MGMT-2
Protocol: as §1, §2, §3, §4

MCF7 = assay: Colony formation assay, MCF7; conditions: pre-treated with O6-BG for 60 minutes; MCF7
Protocol: as §1, §2, §5

MGMT = assay: Western blot of MGMT protein levels in MDA-MB-468 cells; format: cell-based, human; conditions: MDA-MB-468, 17 hours; in words
Protocol: In FIG. 21C, MDA-MB-468 cells were treated with the indicated concentrations of TMZ-POH, TMZ, or O6-BG for 17 hours before harvest of cellular lysates. vh.=cells treated with vehicle only.
(§6) Total cell lysates were analyzed by Western blot analysis as described in P. Pyrko et al. Downregulation of survivin expression and concomitant induction of apoptosis by celecoxib and its non-cyclooxygenase-2-inhibitory analog, dimethyl-celecoxib (DMC), in tumor cells in vitro and in vivo. Mol Cancer 5 (2006) 19. The primary antibodies were purchased from Cell Signaling Technology (Beverly, Mass.) or Santa Cruz Biotechnology, Inc. (Santa Cruz, Calif.) and used according to the manufacturers' recommendations. All immunoblots were repeated at least once to confirm the results.
The major cytotoxic DNA lesion set by TMZ is methylation of O6-guanine, and it is well known that removal of this methyl group by MGMT leads to rapid degradation of the DNA repair protein.

TMZ-resistant tumors = conditions: O6-BG and TMZ, cited from earlier work
MDA-MB-468 = assay: Colony formation assay, MDA-MB-468; conditions: pre-treated with O6-BG for 60 minutes; MDA-MB-468
Protocol: as §1, §2, §5

[2] = system: γ-H2AX, activated caspase 7 and cleaved PARP; assay: DNA damage and cell death marker analysis in MDA-MB-231 cells (Western blot); format: cell-based, human; conditions: MDA-MB-231, 20 μM, after 5 days of treatment; in words
Protocol: FIGS. 25A-25B show DNA damage and cell death marker analysis, where MDA-MB-231 cells were used for Western blot analysis of expression levels for markers of DNA damage (γ-H2AX) and cell death (activated caspase 7 and cleaved PARP). In FIG. 25A, cells were treated with 15 μM TMZ-POH and harvested every 24 hours up to 6 days; control cells remained untreated, or received vehicle (vh.) only. In FIG. 25B, cells were treated with 20 μM of either TMZ-POH, TMZ, or POH individually, or with 20 μM TMZ combined with 20 μM POH (TMZ+POH) and harvested after 24 hours or 5 days; control cells remained untreated, or received vehicle (vh.) only. In the case of caspase 7, only the activated (cleaved) form is shown (cl. C-7).
as §6
It is known that GBM cells treated with physiological concentrations of TMZ (<100 μM) in vitro can survive for several (5-7) days seemingly unaffected before substantial cell death becomes apparent. We observed a similar phenotype when breast cancer cell lines were treated with TMZ-POH, i.e., cell cultures only began to deteriorate approximately a week after the onset of drug treatment. In order to characterize TMZ-POH-induced cell death in greater detail, we treated MDA-MB-231 cells with 15 μM of the drug and collected cell lysates daily over the course of 6 days. The lysates were analyzed by Western blot for the presence of two apoptosis markers, cleaved (i.e. activated) caspase 7 and cleaved PARP-1 (poly ADP-ribose polymerase-1), along with the DNA damage marker γ-H2AX.
As shown in FIGS. 20A-20B above, an equimolar combination of TMZ+POH was unable to achieve the same potency in blocking colony survival as the TMZ-POH conjugate. […] We treated cells with the same concentration (20 μM) of TMZ-POH, TMZ, POH, or TMZ combined with POH (TMZ+POH), and analyzed the induction of γ-H2AX, activated caspase 7, and cleaved PARP. […] Thus, the results from the cell survival assay (FIGS. 20A-20B) correlated closely with the effects of these compounds on DNA damage and apoptosis markers (FIG. 25B), and in all cases TMZ-POH clearly generated the strongest anticancer impact.

[3] = system: TMZ sensitive (U251) cells; assay: Colony forming assay, TMZ sensitive U251 cells; format: cell-based, human; conditions: in words
Protocol: (§7) Colony forming assays were carried out after cells were treated with TMZ alone, POH alone, and the TMZ-POH conjugate. […] Cancer Lett. 2011 Mar. 28; 302(2):100-8.

[4] = system: USC-02 glioma cancer stem cells; assay: MTT cytotoxicity assay, USC-02 glioma cancer stem cells; format: cell-based; conditions: TMZ 0-400 uM, POH 0-2 mM, in words
From the text: Cancer Lett. 2011 Mar. 28; 302(2):100-8.

[5] = system: TMZ resistant (U251TR) U251 cells; assay: Colony forming assay, TMZ resistant U251TR cells; format: cell-based, human; conditions: in words
Protocol: as §7

U251 human glioma cells = assay: MTT cytotoxicity assay, U251 glioma cells; conditions: for cytotoxicity (MTT assay): U251, result in words
From the text: (§8) In vitro efficacy of the present composition can be determined using methods well known in the art. For example, the cytoxicity of the present monoterpene (or sesquiterpene) and/or the therapeutic agents may be studied by MTT [3-(4,5-dimethylthiazol-2-yl)-2,5-diphenyl tetrazolium bromide] cytotoxicity assay. MTT assay is based on the principle of uptake of MTT, a tetrazolium salt, by metabolically active cells where it is metabolized into a blue colored formazon product, which can be read spectrometrically. J. of Immunological Methods 65: 55 63, 1983. The cytoxicity of the present monoterpene (or sesquiterpene) derivative and/or the therapeutic agents may be studied by colony formation assay. Functional assays for inhibition of VEGF secretion and IL-8 secretion may be performed via ELISA. Cell cycle block by the present monoterpene (or sesquiterpene) derivative and/or the therapeutic agents may be studied by standard propidium iodide (PI) staining and flow cytometry. Invasion inhibition may be studied by Boyden chambers. In this assay a layer of reconstituted basement membrane, Matrigel, is coated onto chemotaxis filters and acts as a barrier to the migration of cells in the Boyden chambers. Only cells with invasive capacity can cross the Matrigel barrier. Other assays include, but are not limited to cell viability assays, apoptosis assays, and morphological assays.
(§9) First cytotoxicity assays were carried out after cells were treated with dimethyl-celecoxib (DMC) alone.
(§10) Then U87, A172 and U251 cells were treated with dimethyl celecoxib bisPOH carbamate (POH−DMC) (e.g., synthesized by the method in Example 1), and the MTT cytotoxicity assays performed (FIG. 2).
(§11) First cytotoxicity assays were carried out after cells were treated with temozolomide (TMZ) alone, the standard alkylating agent used in the treatment of malignant gliomas.
(§12) Then TMZ-resistant glioma cell lines U87, A172 and U251 cells were treated with TMZ-POH (e.g., synthesized by the method in Example 3).
(§13) To compare the cytotoxicity of Rolipram POH Carbamate (POH-Rolipram) (e.g., synthesized by the method in Example 5) with rolipram, […] inducing differentiation and apoptosis in glioma cells, A172, U87, U251 and LN229 human glioma cells were treated with either POH-Rolipram or rolipram for 48 hours.
MTT cytotoxicity assays were carried out after cells were treated with the TMZ-POH conjugate. The MTT cytotoxicity assays were carried out as described in Chen T C, et al. Green tea epigallocatechin gallate enhances therapeutic efficacy of temozolomide in orthotopic mouse glioblastoma models. Cancer Lett. 2011 Mar. 28; 302(2):100-8.

LN229 human glioma cells = assay: cells
From the text: as §8, §13

A172 human glioma cells = assay: MTT cytotoxicity assay, A172 glioma cells; conditions: for cytotoxicity (MTT assay): A172, result in words
From the text: as §8, §9, §10, §11, §12, §13

U87 human glioma cells = assay: MTT cytotoxicity assay, U87 glioma cells; conditions: for cytotoxicity (MTT assay): U87, result in words
From the text: as §8, §9, §10, §11, §12, §13

SMILES: C=C(C)C1CC=C(COC(=O)CCC)CC1 (centres unmarked) [Butyryl-POH]
- inhibition of tumor growth [1]: greatest inhibition of tumor growth

SMILES: Nc1nc(OCc2ccccc2)c2nc[nH]c2n1 [O6-BG, O6-benzylguanine, reference compound]
- effect of O6-BG on toxicity of TMZ-POH and TMZ (231-MGMT-1): greatly enhanced toxicity
- effect of O6-BG on survival of cells treated with TMZ-POH or TMZ (MDA-MB-231; pre-treated with O6-BG for 60 minutes, MDA-MB-231): had no effect
- effect of O6-BG on toxicity of TMZ-POH and TMZ (231-MGMT-2): greatly enhanced toxicity
- effect of O6-BG on cytotoxic outcome of TMZ-POH and TMZ treatment (MCF7): increased the cytotoxic outcome
- MGMT protein levels (MGMT): strongly decreases MGMT protein levels
- fraction of patients with restored TMZ-sensitivity (TMZ-resistant tumors; patients with GBM, no significant effect): 3%
- fraction of patients with restored TMZ-sensitivity (TMZ-resistant tumors; patients with anaplastic glioma): 16%
- effect of O6-BG on cytotoxic outcome of TMZ-POH and TMZ treatment (MDA-MB-468): increased the cytotoxic outcome

SMILES: C=C(C)[C@@H]1CC=C(CO)CC1 [POH, Perillyl alcohol]
- concentrations required in order to become cytotoxic (MDA-MB-231): above 100 μM
- pIC50 (MDA-MB-231; Homo sapiens, MDA-MB-231, 48 h, read-out: IC50 (concentration required to decrease colony formation by 50%)): ~3.15
- induction of γ-H2AX, activated caspase 7, and cleaved PARP [2]: inactive
- cytotoxicity (colony forming assay) [3]: demonstrated cytotoxicity
- cytotoxicity (MTT assay) [4]: demonstrated cytotoxicity
- cytotoxicity (colony forming assay) [5]: demonstrated cytotoxicity

SMILES: C=C(C)C1CC=C(COC(=O)N2CC(c3ccc(OC)c(OC4CCCC4)c3)CC2=O)CC1 (centres unmarked) [POH-rolipram, 4-(3-cyclopentyloxy-4-methoxyphenyl)-2-oxo-pyrrolidine-1-carboxylic acid 4-isopropenyl cyclohex-1-enylmethyl ester]
- cytotoxicity (MTT assay) (U251 human glioma cells): substantially higher kill rates compared to rolipram alone
- pIC50 (U251 human glioma cells; U251 cells, 48 hours): 4.30
- cytoxicity (U251 human glioma cells; U251 cells, at 100 uM): ~100%
- cytotoxicity (MTT assay) (LN229 human glioma cells): substantially higher kill rates compared to rolipram alone
- pIC50 (LN229 human glioma cells; LN229 cells, 48 hours): 4.00
- cytotoxicity (MTT assay) (A172 human glioma cells): substantially higher kill rates compared to rolipram alone
- pIC50 (A172 human glioma cells; A-172 cells, 48 hours): 4.30
- cytotoxicity (MTT assay) (U87 human glioma cells): substantially higher kill rates compared to rolipram alone
- pIC50 (U87 human glioma cells; U-87 cells, 48 hours): 3.74

SMILES: C=C(C)C1CC=C(COC(=O)N(C(=O)OCC2=CCC(C(=C)C)CC2)S(=O)(=O)c2ccc(-n3nc(C(F)(F)F)cc3-c3cc(C)ccc3C)cc2)CC1 (centres unmarked) [POH−DMC]
- cytotoxicity (MTT assay) (U251 human glioma cells): much better cytotoxicity than DMC alone
- cytotoxicity (MTT assay) (A172 human glioma cells): much better cytotoxicity than DMC alone
- cytotoxicity (MTT assay) (U87 human glioma cells): much better cytotoxicity than DMC alone

SMILES: COc1ccc(C2CNC(=O)C2)cc1OC1CCCC1 (centres unmarked) [rolipram, reference compound]
- pIC50 (U251 human glioma cells; Homo sapiens, U-251, 48 h): 3.77
- plateau cytotoxicity (U251 human glioma cells; U251 cells): 60%
- pIC50 (LN229 human glioma cells; Homo sapiens, LN-229, 48 h): < 4.00
- pIC50 (A172 human glioma cells; Homo sapiens, A 172, 48 h): ~3.00
- pIC50 (U87 human glioma cells; Homo sapiens, U-87 MG, 48 h): < 3.00
